Experimental data as given in patent US20140066394A1, “Substituted 6-(Benzylamino) Purine Riboside Derivatives, Use Thereof and Compositions Containing These Derivatives” (Biopatterns, S.R.O, priority 2009, published 2014).

Columns and labels:
[1] = test system: human skin melanoma G-361; assay: In vitro cytotoxicity, Calcein AM assay, G-361; type: cell-based
Source text: (§1) Low cytotoxicity of the compounds is the major property determining the cosmetic use. One of the parameters used, as the basis for cytotoxicity assays, is the metabolic activity of viable cells. For example, a microtiter assay, which uses the Calcein AM, is now widely used to quantitate cell proliferation and cytotoxicity. For instance, this assay is used in drug screening programs and in chemosensitivity testing. Because only metabolically active cells cleave Calcein AM, these assays detect viable cells exclusively. The quantity of […] Calcein AM corresponds to the number of vital cells in the culture.
(§2) Human T-lymphoblastic leukemia cell line CEM; promyelocytic HL-60 and monocytic U937 leukemias; breast carcinoma cell lines MCF-7, BT549, MDA-MB-231; glioblastoma U87MG cells; cervical carcinoma cells HELA; sarcoma cells U2OS and Saos2; hepatocellular carcinoma HepG2; mouse fibroblasts NIH3T3; mouse immortalized bone marrow macrophages B2.4 and B10A.4; P388D1 and L1210 leukemia; B16 and B16F10 melanomas; human osteosarcoma HOS; human myeloid leukemia K-562; human skin melanoma G-361 were used for routine screening of compounds. The cells were maintained in Nunc/Corning 80 cm^2 plastic tissue culture flasks and cultured in cell culture medium (DMEM with 5 g/l glucose, 2 mM glutamine, 100 U/mL penicillin, 100 μg/mL streptomycin, 10% fetal calf serum and sodium bicarbonate).
(§3) The cell suspensions that were prepared and diluted according to the particular cell type and the expected target cell density (2.500-30.000 cells per well based on cell growth characteristics) were added by pipette ([…]) into 96/well microtiter plates. Inoculates were allowed a pre-incubation period of 24 hours at 37° C. and 5% CO2 for stabilisation. Four-fold dilutions of the intended test concentration were added at time zero in 20 μl aliquots to the microtiter plate wells. Usually, the compound tested was evaluated at six 4-fold dilutions. In routine testing, the highest well concentration was 100 μM, but it can be the matter of change dependent on the agent. All drug concentrations were examined in duplicates. Incubations of cells with the tested compounds lasted for 72 hours at 37° C., in 5% CO2 atmosphere and 100% humidity. At the end of the incubation period, the cells were assayed by using Calcein AM. Ten microliters of the stock solution were pipetted into each well and incubated for 1 hour. Fluorescence (FD) was measured with the Labsystem FIA Reader Fluoroscan Ascent (UK). The tumour cell survival (GI50) was calculated using the following equitation: TCS=(FDdrug exposed well/mean FDeontrol wells)×100%. The GI50 value, the drug concentration lethal to 50% of the tumour cells, was calculated from the obtained dose response curves.
(§4) Zero cytotoxicity of the novel compounds is the basic prerequisite for agricultural and tumor-unrelated applications. The cytoxicity of the novel compounds was tested on a panel of cell lines of different histogenetic and species origin (Table 9). We show herein that equal activities were found in all tumour cell lines tested, however, the non-malignant cells, e.g. NIH3T3 fibroblasts and normal human lymphocytes, were resistant to 2,6-disubstituted purine ribosides induced cytotoxicity. The compounds listed in Tab. 9 can be divided into 2 groups. The first group contains “classical cytokinins” represented by 6-substituted purine ribosides (which are known in the prior art). The second group contains the novel 2,6-disubstituted derivatives of these compounds. […] GI50 for NIH3T3 fibroblasts and normal human lymphocytes was always higher than 100 μM. The novel derivatives show no toxicity to normal and tumour cells in concentrations about 100 μM and thus are more suitable for agricultural applications than “classical cytokinins” (6-substituted purine riboside derivatives).

[2] = test system: promyelocytic HL-60 leukemia; assay: In vitro cytotoxicity, Calcein AM assay, HL60; type: cell-based, human
Source text: as §1, §2, §3, §4

[3] = test system: human osteosarcoma HOS; assay: In vitro cytotoxicity, Calcein AM assay, HOS; type: cell-based; settings: 72 hours
Source text: as §1, §2, §3, §4

[4] = test system: breast carcinoma cell line MCF-7; assay: In vitro cytotoxicity, Calcein AM assay, MCF7; type: cell-based, human
Source text: as §1, §2, §3, §4

[5] = test system: Human T-lymphoblastic leukemia cell line CEM; assay: In vitro cytotoxicity, Calcein AM assay, CEM; type: cell-based; settings: 72 hours
Source text: as §1, §2, §3, §4

[6] = test system: human myeloid leukemia K-562; assay: In vitro cytotoxicity, Calcein AM assay, K-562; type: cell-based
Source text: as §1, §2, §3, §4

[7] = test system: cytokinin-dependent tobacco callus Nicotiana tabacum L. cv. Wisconsin 38; assay: Tobacco callus bioassay (stimulation of plant cell division); type: cell-based; settings: for concentration with highest activity: increase of fresh callus weight after four weeks, tested 10^−8 M to 10^−4 M; for activity (%) [10^−5 mol · l^−1 C = 100%]: relative activity at the concentration with highest activity, kinetin riboside at 10^−5 mol/l = 100%
Method: Cytokinin-dependent tobacco callus Nicotiana tabacum L. cv. Wisconsin 38 was maintained at 25° C. in darkness on modified MS medium, containing per 1 liter: 4 μmol of nicotinic acid, 2.4 μmol of pyridoxine hydrochloride, 1.2 μmol of thiamine, 26.6 μmol of glycine, 1.37 μmol of glutamine, 1.8 μmol of myo-inositol, 30 g of sucrose, 8 g of agar, 5.37 μmol of NAA and 0.5 μmol of the compound tested. Subcultivation was carried out every three weeks. Fourteen days before the bioassay, the callus tissue was transferred to the media without the compound tested. The biological activity was determined from the increase of the fresh callus weight after four weeks of cultivation. Five replicates were prepared for each concentration of the compound tested and the entire test was repeated twice. From the obtained data, the concentration with the highest activity was selected for each compound tested. Relative activity of the compound at this concentration was calculated (Table 8). The compounds to be tested were dissolved in dimethylsulfoxide (DMSO) and the solution brought up to 10^−3M with distilled water. […] The compounds listed in Table 8 are compared to a “classical cytokinin” kinetin riboside (compound known in the prior art—C=control).

[8] = test system: β-adrenergic receptors; assay: Isoproterenol-induced cAMP synthesis in rat C6 glioma (anti-inflammatory activity); type: cell-based; settings: for Effect (modulation of isoproterenol-induced cAMP synthesis): added simultaneously with (−)-isoproterenol; for IC50: cellular cAMP by enzyme immunoassay, dose-response curve in duplicate, read-out: I50
Method: Anti-inflammatory activity of several of the 2-substituted 6-benzylaminopurine riboside derivatives of this invention was determined; kinetin riboside was also evaluated as a control. Rat C6 glioma (ATCC No. CCL107) was cultivated in monolayer in serum-free chemically defined medium containing Ham's F10/minimal essential medium (1:1 v/v), 2 mM L-glutamine, 1% (v/v) minimal essential medium vitamins (100×), 1% (v/v) minimal essential medium nonessential amino acids (100×), 100 U/mL penicillin, […], and 30 nM sodium selenite. Incubation was performed at 37° C. in a humidified atmosphere. The assays were performed in the logaritmic growth phase at a density of 2.5×10^5 cells/cm^2.
Intracellular cAMP synthesis was induced by addition of 5 mM (−)-isoproterenol; various amounts of test compounds were added at the same time as the (−)-isoproterenol. After […] incubation at 37° C., the medium was removed and the cellular amount of cAMP was determined using the cAMP-enzyme immunoassay kit from Amersham. The I50 value was determined from a dose-response curve in duplicate. The effect of nine purine analogues was measured after simultaneous addition with isoproterenol.
As P2Y1-like and A2 purinergic receptors, negatively and positively coupled to adenylate cyclase respectively, are present on rat C6 glioma as to be determined if the modulation of the synthesis of cAMP is due to inhibition of the activation of β-adrenergic receptors by isoproterenol are due to activation of purinergic receptors.

Compound | GI50 ([1]; 72 hours) [µM] | GI50 ([2]; 72 hours) [µM] | GI50 [3] [µM] | GI50 ([4]; 72 hours) [µM] | GI50 [5] [µM] | GI50 ([6]; 72 hours) [µM] | concentration with highest activity [7] | activity (%) [10^−5 mol · l^−1 C = 100%] [7] | Effect (modulation of isoproterenol-induced cAMP synthesis) [8] | IC50 [8] [µM] | also measured
Cc1ccc(O)c(CNc2ncnc3c2ncn3C2OC(CO)C(O)C2O)c1 (centres unmarked) [2-hydroxy-5-methylbenzylamino, reference compound] | > 100 | 10 | > 100 | 6.9 | 0.9 | 18 | – | – | – | – | –
OCC1OC(n2cnc3c(NCc4ccc(F)cc4F)nc(Cl)nc32)C(O)C1O (centres unmarked) [Compound 32] | – | – | – | – | – | – | 10^−6 mol · l^−1 | 109.7 (±12) % | – | – | –
COc1ccc(CNc2ncnc3c2ncn3[C@@H]2O[C@H](CO)[C@@H](O)[C@H]2O)c(O)c1 [2-hydroxy-4-methoxybenzylamino, reference compound] | > 100 | 0.15 | > 100 | 20 | 0.3 | 28 | – | – | – | – | –
OCC1OC(n2cnc3c(NCc4cc(F)ccc4O)nc(Cl)nc32)C(O)C1O (centres unmarked) [Compound 30] | – | – | – | – | – | – | 10^−6 mol · l^−1 | 108.6 (±3) % | inhibition | 15.7 ± 4 | GI50 ([1]; Homo sapiens, G-361, 72 hours): > 100 µM; GI50 ([2]; Homo sapiens, HL-60, 72 hours): > 100 µM; GI50 ([3]; Homo sapiens): > 100 µM; GI50 ([4]; Homo sapiens, MCF7, 72 hours): > 100 µM; GI50 ([5]; Homo sapiens): > 100 µM; GI50 ([6]; Homo sapiens, K562, 72 hours): > 100 µM
OC[C@H]1O[C@@H](n2cnc3c(NCc4ccco4)ncnc32)[C@H](O)[C@@H]1O [C, kinetin riboside, reference compound] | – | – | – | – | – | – | 10^−5 mol · l^−1 | 100% | inactive | – | Effect (modulation of isoproterenol-induced cAMP synthesis) ([8]; listed as control): none
OCC1OC(n2cnc3c(NCc4cc(F)ccc4O)nc(F)nc32)C(O)C1O (centres unmarked) [Compound 50] | – | – | – | – | – | – | – | – | inhibition | 13.6 ± 3 | –
COc1cccc(CNc2nc(F)nc3c2ncn3C2OC(CO)C(O)C2O)c1O (centres unmarked) [Compound 40] | – | – | – | – | – | – | – | – | inhibition | 4.2 ± 2 | –
COc1c(O)cccc1CNc1ncnc2c1ncn2[C@@H]1O[C@H](CO)[C@@H](O)[C@H]1O [2-methoxy-3-hydroxybenzylamino, reference compound] | > 100 | 10 | > 100 | > 100 | 1.9 | 16.5 | – | – | – | – | –
OCC1OC(n2cnc3c(NCc4c(F)ccc(F)c4F)nc(Cl)nc32)C(O)C1O (centres unmarked) [Compound 33] | – | – | – | – | – | – | 10^−6 mol · l^−1 | 105.1 (±2) % | – | – | –
OC[C@H]1O[C@@H](n2cnc3c(NCc4cc(F)ccc4O)ncnc32)[C@H](O)[C@@H]1O [2-hydroxy-5-fluorobenzylamino, reference compound] | > 100 | 24 | > 100 | > 100 | 52 | > 100 | – | – | – | – | –
OC[C@H]1O[C@@H](n2cnc3c(NCc4cc(Cl)ccc4O)nc(Cl)nc32)[C@H](O)[C@@H]1O [Compound 29, 2-Chloro-6-(2-hydroxy-5-chlorobenzylamino)purine riboside] | > 100 | > 100 | > 100 | > 100 | > 100 | > 100 | – | – | inhibition | 12.4 ± 2 | –
OCC1OC(n2cnc3c(NCc4cc(Cl)ccc4O)nc(F)nc32)C(O)C1O (centres unmarked) [Compound 49] | – | – | – | – | – | – | 10^−6 mol · l^−1 | 112 (±8) % | inhibition | 10.8 ± 3 | –
COc1c(O)cccc1CNc1nc(Cl)nc2c1ncn2C1OC(CO)C(O)C1O (centres unmarked) [Compound 21] | > 100 | > 100 | > 100 | > 100 | > 100 | > 100 | – | – | – | – | –
COc1cccc(CNc2ncnc3c2ncn3C2OC(CO)C(O)C2O)c1O (centres unmarked) [2-hydroxy-3-methoxybenzylamino, reference compound] | > 100 | 9.5 | > 100 | > 100 | 40 | > 100 | – | – | – | – | –
Cc1cccc(CNc2nc(Cl)nc3c2ncn3C2OC(CO)C(O)C2O)c1O (centres unmarked) [Compound 13] | > 100 | > 100 | > 100 | > 100 | > 100 | > 100 | – | – | inhibition | 18.7 ± 4 | –
CSc1nc(NCc2ccc(F)cc2F)c2ncn(C3OC(CO)C(O)C3O)c2n1 (centres unmarked) [Compound 97] | – | – | – | – | – | – | 10^−6 mol · l^−1 | 107 (±8) % | – | – | –
OCC1OC(n2cnc3c(NCc4cc(Cl)ccc4O)ncnc32)C(O)C1O (centres unmarked) [2-hydroxy-5-chlorobenzylamino, reference compound] | > 100 | 1.6 | > 100 | 32 | 2.4 | 36 | – | – | – | – | –
COc1ccc(CNc2nc(Cl)nc3c2ncn3C2OC(CO)C(O)C2O)c(O)c1 (centres unmarked) [Compound 11] | > 100 | > 100 | > 100 | > 100 | > 100 | > 100 | – | – | – | – | –
